Results on twelve compounds are retold here after patent US7956069B2, “Compounds” (AstraZeneca AB, priority 2006, dated 2011).

Each structure is given as a SMILES string.

The target of this assay is T1, hM1 (human Muscarinic receptor subtype 1) (Homo sapiens, UniProt P11229).
T1 construct: expressed in transfected cells; host or cells: CHO cells (Chinese hamster ovary cells, ATCC)
T1 sequence (P11229 1-460): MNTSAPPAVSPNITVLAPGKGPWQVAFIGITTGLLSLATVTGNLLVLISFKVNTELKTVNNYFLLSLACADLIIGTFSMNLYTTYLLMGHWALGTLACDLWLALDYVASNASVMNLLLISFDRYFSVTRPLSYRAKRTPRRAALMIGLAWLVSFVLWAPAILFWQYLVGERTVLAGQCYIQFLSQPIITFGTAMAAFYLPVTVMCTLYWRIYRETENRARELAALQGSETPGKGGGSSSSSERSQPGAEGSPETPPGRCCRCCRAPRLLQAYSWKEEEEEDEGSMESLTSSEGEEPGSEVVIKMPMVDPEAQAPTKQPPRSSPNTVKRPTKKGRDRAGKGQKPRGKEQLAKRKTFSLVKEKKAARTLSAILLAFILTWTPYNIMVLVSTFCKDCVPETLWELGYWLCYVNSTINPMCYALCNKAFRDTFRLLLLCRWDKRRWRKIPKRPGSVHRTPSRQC
Put plainly: Human M1 calcium mobilization FLIPR assay. It counts as cell-based. To be noted: CHO cells expressing hM1, Ca2+ release. The method, then: Biological Evaluation Human M1, Rat M1, Human M3 and Human M5 Calcium Mobilization FLIPR™ Assay
The compound activity in the present invention (EC50 or IC50) was measured using a 384 plate-based imaging assay that monitors drug induced intracellular Ca^2+ release in whole cells. Activation of hM1 (human Muscarinic receptor subtype 1, gene bank access NM_000738), rM1 (rat Muscarinic receptor subtype 1, gene bank access NM_080773), hM3 (human Muscarinic receptor subtype 3, gene bank access NM_000740NM_000740) and hM5 (human Muscarinic receptor subtype 5, gene bank access NM_0121258), receptors expressed in CHO cells (Chinese hamster ovary cells, ATCC) was quantified in a Molecular Devices FLIPR II™ instrument as an increase in fluorescent signal. Inhibition of hM3 and hM5 by compounds was determined by the decrease in fluorescent signal in response to 20 nM carbachol activation.
CHO cells were plated in 384-black polylysine coated plate (Costar) at 8000 cells/well/50 μl for 24 hours or 4000 cells/well for 48 hours in a humidified incubator (5% CO2 and 37° C.) in DMEM/F12 medium without selection agent. Prior to the experiment the cell culture medium was removed from the plates by inversion. A loading solution of 30 μl of Hank's balanced salt solution, 10 mM Hepes and 2.5 mM Probenicid at Ph 7.4 (Cat no. 311-520-VL, Wisent) with 2 μM calcium indicator dye (FLUO-3AM, Molecular Probes F14202) was added to each well. Plates were incubated at 37° C. for 60 minutes prior to start the experiment. The incubation was terminated by washing the cells four times in assay buffer, leaving a residual 25 μl buffer per well. Cell plates were then transferred to the FLIPR, ready for compound additions.
The day of experiment, carbachol and compounds were diluted in three-fold concentration range (10 points serial dilution) for addition by FLIPR instrument. For all calcium assays, a baseline reading was taken for 30 seconds followed by the addition of 12.5 μl (25 μl for hM1 and rM1) of compounds, resulting in a total well volume of 37.5 μl (50 μl for hM1 and rM1). Data were collected every 1.6 seconds for 300 seconds. For hM3 and hM5 an additional 12.5 μl of carbachol (20 nM final) was added at 300 seconds. After this addition of carbachol (producing a final volume of 50 μl), the FLIPR continued to collect data every 2 seconds for 240 seconds. The fluorescence emission was read using filter 1 (emission 520-545 nm) by the FLIPR on board CCD camera.
Calcium mobilization output data were calculated as the maximal relative fluorescence unit (RFU) minus the minal value for both compound and agonist reading frame (except for hM1 and rM1 using only the maximal RFU). Data were analyzed using sigmoidal fits of a non-linear curve-fitting program (XLfit version 5.0.6 from ID Business Solutions Limited, Guildford, UK). All EC50 and IC50 values are reported as arithmetic means±standard error of mean of ‘n’ independent experiments.
On the technique in general: Calcium flux is commonly read through the fluorescence of an indicator in the cells.

`CCOC(=O)N1CCC(N2CCC(N3C(=O)N[C@H]4CCCC[C@@H]43)CC2)CC1`: the EC50 – broadly, the concentration needed to bring the measured effect to its halfway point – is 0.0011 µM.

As for `CCOC(=O)N1CC[C@H](N2CCC(N3C(=O)N[C@H]4CCCC[C@@H]43)CC2)C1`, the EC50 was found to be 0.005 µM.

Regarding `COc1ccccc1C(=O)N1CCC(N2CCC(N3C(=O)N[C@@H]4CCCC[C@H]43)CC2)CC1`, the EC50 came out at 0.2 µM.

Turning to `CC(C)OC(=O)N1CCC(N2CCC(N3C(=O)N[C@H]4CCCC[C@@H]43)CC2)CC1`, the EC50 worked out at 0.0046 µM.

Consider `CC(C)OC(=O)N1CCC(N2CCC(N3C(=O)N[C@@H]4CCCC[C@@H]43)CC2)CC1`, for which the EC50 came out at 0.015 µM.

`O=C1CCCN1CCC(=O)N1CCC(N2CCC(N3C(=O)N[C@H]4CCCC[C@@H]43)CC2)CC1`: the EC50 stood at 0.0068 µM.

For `O=C(C1CC1)N1CCC(N2CCC(N3C(=O)N[C@@H]4CCCC[C@H]43)CC2)CC1`, the EC50 was 0.046 µM.

With `O=C1CCCN1CCC(=O)N1CCC(N2CCC(N3C(=O)N[C@@H]4CCCC[C@H]43)CC2)CC1`, the EC50 amounted to 0.0092 µM.

On to `O=C(C1CCCC1)N1CCC(N2CCC(N3C(=O)N[C@H]4CCCC[C@@H]43)CC2)CC1`, for which the half-maximal effective concentration (EC50) is 0.095 µM.

Take `CN1C(=O)N(C2CCN(C3CCN(C(=O)C4CC4)CC3)CC2)[C@H]2CCCC[C@@H]21`: the EC50 came to 0.094 µM.

In the case of `CC(C)OC(=O)N1CCC(N2CCC(N3C(=O)C[C@H]4CCCC[C@@H]43)CC2)CC1`, the EC50 is 0.014 µM.

As to `O=C(OCCF)N1CCC(N2CCC(N3C(=O)N[C@H]4CCCC[C@@H]43)CC2)CC1`, the EC50 came to 0.0025 µM.
